Source: patent US6660255B1, “Inhibition of gene transcription by polyamide DNA-binding ligands” (California Institute of Technology, priority 1997, dated 2003)

Columns and labels:
[1] = test system: TBP binding and transcription at the Her-2/neu promoter; assay: TBP binding and transcription, Her-2/neu promoter; assay type: biochemical, human
Text: (§1) In another example, a polyamide was designed to bind immediately downstream of the TATA element found in the human Her-2/neu breast cancer oncogene promoter. […] Her-2/neu is recognized to be over-expressed in several cancers, including human gynecologic adenocarcinomas, including those of the ovary, endometrium, breast, fallopian tube and cervix (Cirisano, F. D., & Karlan, B. Y., J. Soc. Gynecol. Investig. 3 99-105 (1996)).

[2] = molecular target: 5′AGAATGA-3′ in the human Her-2/neu promoter; assay: Binding downstream of the Her-2/neu TATA element; conditions: read-out: apparent dissociation constant
Text: as §1

LEF-1 DBD = assay: footprint; conditions: 10 mM Hepes pH 7.5, 100 mM KCl
TFIIIA = assay: footprint; conditions: DNase I; binding inhibited >90% by 5 nM polyamide ImPyPyPy-γ-ImPyPyPy-β-Dp
5′-TGTTACA-3′ = assay: Quantitative DNase I footprint titration, pJT2B2 fragment; assay type: binding
[3] = test system: 5′-WGWWWCW-3′ target sequence; conditions: hairpin conformation; Trauger et al. 1996; cited from earlier work
[4] = molecular target: 5′-AGGTCT-3′ adjacent to the TATA box of the CMV MIEP; assay: Binding to the CMV MIEP next to the TATA element; set-up: species or system human cytomegalovirus; conditions: read-out: apparent dissociation constant
Text: (§2) This method is a useful general approach for modulation of gene expression. For example, specific polyamides have been designed and synthesized that bind to double stranded DNA adjacent to the TATA element of the human cytomegalovirus major immediate early promoter (CMV MIEP). Polyamide CMV-1, ImImPyPy-γ-ImPyPyPy-β-Dp, binds the identified target sequence 5′-AGGTCT-3′, where the last T of this sequence is the 5′ T of the TATA element.

[5] = test system: TBP binding and basal transcription at the CMV MIEP; assay: TBP binding and basal transcription, CMV MIEP; assay type: biochemical, human cytomegalovirus
Text: as §2

TBP (rhTBP) = TBP (rhTBP) (Homo sapiens, UniProt P20226 P20226:1-339); assay: EMSA; not inhibited by HIV-1 polyamide; conditions: tags: Promega; label: 32P
HIV-1 TATA element = assay: TBP binding to the HIV-1 TATA element
Experimental: TBP binds the HIV-1 TATA element with a Kd of ˜1-3 nM.

Which results are given for ImPy-β-PyIm-γ-PyPy-β-PyPy-β-Dp [Her2-1]?
inhibition of TBP binding and transcription [1]: effective inhibitor; Kd [2]: 0.02 nM

For HIV-1 LEF-1 site L2, which Kd (LEF-1 DBD; 1 mM MgCl2) is on record?
Its Kd is 5.8 nM.

With 5S RNA gene internal control region as the molecule, how does the Kd (TFIIIA) read?
Its Kd is 1 nM.

For `CN(C)CCCNC(=O)CCNC(=O)c1cc(NC(=O)c2cc(NC(=O)CCNC(=O)c3cc(NC(=O)c4nc(NC(=O)CCCNC(=O)c5cc(NC(=O)c6cc(NC(=O)CCNC(=O)c7cc(NC(=O)c8nccn8C)cn7C)cn6C)cn5C)cn4C)cn3C)cn2C)cn1C` [polyamide 6, ImPy-β-PyPy-γ-ImPy-β-PyPy-β-Dp], which “Equilibrium association constants, 5′-aTGTTACAt-3′” value (5′-TGTTACA-3′; 24° C., pH 7.0, 10 mM Tris.HCl, 10 mM KCl, 10 mM MgCl2, 5 mM CaCl2, mean (SD)) is on record?
Its value is “greater than 1×10^9 M^−1”.

What about the “fold higher affinity relative to unlinked analog” value (5′-TGTTACA-3′; polyamide 6 vs 9, polyamide 3 vs 7) of the same molecule?
The value was ~1000 fold.

For “ImPyPyPyPy-γ-ImPyPyPyPy-β-Dp [polyamide 3]”, which “affinity for seven base pair target sequence” value [3] is on record?
The value was “subnanomolar”.

For HIV-1 LEF-1 site L3, which Kd (LEF-1 DBD; 1 mM MgCl2) is on record?
Its Kd is 4.9 nM.

Which Kd [4] does the source give for ImImPyPy-γ-ImPyPyPy-β-Dp [CMV-1] here?
The Kd was 1 nM.

What about the “inhibition of TBP binding and basal transcription” value [5] of the same molecule?
Its value is “effective inhibitor”.

For HIV-1 enhancer LEF-1 site L1, which Kd (LEF-1 DBD; 1 mM MgCl2, 1 mM DTT, 1.5 nM stated in p144) is on record?
Its Kd is 1.4 nM.

B1: AdML TATA region oligo (dsDNA)
DNA 1: GATCGGGGGCTATAAAAGGGGGTGGG
DNA 2: CCCACCCCCTTTTATAGCCCCCGATC
Does B1 bind (TBP (rhTBP))?
Result: binds

B2: TBP: TATA-box binding protein, recombinant human TBP (protein, UniProt P20226 1-339, looked up)
TATA-box-binding protein: MDQNNSLPPYAQGLASPQGAMTPGIPIFSPMMPYGTGLTPQPIQNTNSLSILEEQQRQQQQQQQQQQQQQQQQQQQQQQQQQQQQQQQQQQQQQQAVAAAAVQQSTSQQATQGTSGQAPQLFHSQTLTTAPLPGTTPLYPSPMTPMTPITPATPASESSGIVPQLQNIVSTVNLGCKLDLKTIALRARNAEYNPKRFAAVIMRIREPRTTALIFSSGKMVCTGAKSEEQSRLAARKYARVVQKLGFPAKFLDFKIQNMVGSCDVKFPIRLEGLVLTHQQFSSYEPELFPGLIYRMIKPRIVLLIFVSGKVVLTGAKVRAEIYEAFENIYPILKGFRKTT
Which Kd (HIV-1 TATA element) does the source give for B2 here?
Its Kd is 1 to 3 nM.
